Target: T1, human MC5R (Homo sapiens, UniProt P33032)
T1 construct: purchased Perkin Elmer RBXMC5M400UA
Test: Human MC5R radioligand binding assay ([125I] NDP-MSH displacement, hMC5R membranes)
Conditions: not given
Outline: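 Bound ligand collected by filtration on PEI-soaked GF/A filters and counted. Data fitted to a single-site competition model with fixed Hill coefficient to give EC50.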

T1 sequence (P33032 whole entry): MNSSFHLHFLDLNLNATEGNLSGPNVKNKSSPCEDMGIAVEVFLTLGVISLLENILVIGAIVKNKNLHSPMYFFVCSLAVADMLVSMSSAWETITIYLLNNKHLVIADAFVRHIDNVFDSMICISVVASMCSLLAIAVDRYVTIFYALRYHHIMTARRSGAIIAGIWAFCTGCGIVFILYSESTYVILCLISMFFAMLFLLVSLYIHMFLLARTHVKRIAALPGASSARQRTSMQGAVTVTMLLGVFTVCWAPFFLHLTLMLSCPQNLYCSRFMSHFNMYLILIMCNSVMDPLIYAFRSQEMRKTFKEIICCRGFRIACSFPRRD

Structure (SMILES) | IC50 [µM]
CC[C@H](CN1CC[C@@H](CNC(=O)c2ccc3cc(Cl)ccc3c2)N[C@@H](CC(C)(C)N2CCCCC2)C1=O)c1ccccc1 (racemic) [Compound 499, 6-chloro-N-(((3S,5S)-3-(2-methyl-2-(piperidin-1-yl)propyl)-2-oxo-1-((S)-2-phenylbutyl)-1,4-diazepan-5-yl)methyl)-2-naphthamide] | < 0.1
CC[C@H](CN1CC[C@H](CNC(=O)c2ccc3cc(Cl)ccc3c2)N[C@H](CC(C)(C)N2CCCCC2)C1=O)c1ccccc1 (racemic) [Compound 500, 6-chloro-N-(((3R,5R)-3-(2-methyl-2-(piperidin-1-yl)propyl)-2-oxo-1-((S)-2-phenylbutyl)-1,4-diazepan-5-yl)methyl)-2-naphthamide] | < 0.1
CC[C@@H](CN1CC[C@@H](CNC(=O)c2ccc(Cl)c(Cl)c2)N[C@@H](CCN)C1=O)C(C)C (racemic) [Compound 489, N-(((3S,5S)-3-(2-aminoethyl)-1-((R)-2-ethyl-3-methylbutyl)-2-oxo-1,4-diazepan-5-yl)methyl)-3,4-dichlorobenzamide] | < 10

Same assay, conditions: hMC5R assay as in Example 102; compounds tested as trifluoroacetate or hydrochloride salts, or as free base

Structure (SMILES) | IC50 [µM]
NCC[C@@H]1N[C@H](CNC(=O)c2ccc3ccccc3c2)CCN(Cc2cc(Cl)cc(Cl)c2)C1=O [Compound 49, (3S,5S)-3-(2-aminoethyl)-5-(2-naphthoylaminomethyl)-1-(3,5-dichlorobenzyl)-1,4-diazepan-2-one] | < 1
N#Cc1ccc(/C=C/C(=O)NC[C@@H]2CCN(CC(c3ccccc3)c3ccccc3)C(=O)[C@H](CCCN)N2)cc1 [Compound 234, (E)-N-(((3S,5S)-3-(3-aminopropyl)-1-(2,2-diphenylethyl)-2-oxo-1,4-diazepan-5-yl)methyl)-3-(4-cyanophenyl)acrylamide] | < 1
N=C(N)NCCC[C@@H]1N[C@H](CNC(=O)c2ccc3ccccc3c2)CCN(CCc2ccccc2)C1=O [Compound 182, N-(((3S,5S)-3-(3-guanidinopropyl)-2-oxo-1-phenethyl-1,4-diazepan-5-yl)methyl)-2-naphthamide] | < 1
N=C(N)NCCC[C@@H]1N[C@H](CNC(=O)c2ccc(-c3ccccc3)o2)CCN(CC(c2ccccc2)c2ccccc2)C1=O [Compound 179, N-(((3S,5S)-1-(2,2-diphenylethyl)-3-(3-guanidinopropyl)-2-oxo-1,4-diazepan-5-yl)methyl)-5-phenylfuran-2-carboxamide] | < 1
CN(C)C(=N)NCCC[C@@H]1N[C@H](CNC(=O)c2ccc3ccccc3c2)CCN(CC(c2ccccc2)c2ccccc2)C1=O [Compound 216, N-(((3S,5S)-3-(3-(3,3-dimethylguanidino)propyl)-1-(2,2-diphenylethyl)-2-oxo-1,4-diazepan-5-yl)methyl)-2-naphthamide] | < 0.1
N=C(N)NCCC[C@@H]1N[C@H](CNC(=O)C2Cc3ccccc3C2)CCN(CC(c2ccccc2)c2ccccc2)C1=O [Compound 133, N-(((3S,5S)-1-(2,2-diphenylethyl)-3-(3-guanidinopropyl)-2-oxo-1,4-diazepan-5-yl)methyl)-2,3-dihydro-1H-indene-2-carboxamide] | < 10
N=C(N)NCCC[C@@H]1N[C@H](CNC(=O)/C=C/c2c(F)cccc2F)CCN(CC(c2ccccc2)c2ccccc2)C1=O [Compound 208, (E)-3-(2,6-difluorophenyl)-N-(((3S,5S)-1-(2,2-diphenylethyl)-3-(3-guanidinopropyl)-2-oxo-1,4-diazepan-5-yl)methyl)acrylamide] | < 0.1
N=C(N)NCCC[C@@H]1N[C@H](CNC(=O)c2cc3ccccc3cn2)CCN(CC(c2ccccc2)c2ccccc2)C1=O [Compound 114, N-(((3S,5S)-1-(2,2-diphenylethyl)-3-(3-guanidinopropyl)-2-oxo-1,4-diazepan-5-yl)methyl)isoquinoline-3-carboxamide] | < 1
NCCC[C@@H]1N[C@H](CNC(=O)c2cc(-c3ccco3)on2)CCN(CC(c2ccccc2)c2ccccc2)C1=O [Compound 241, N-(((3S,5S)-3-(3-aminopropyl)-1-(2,2-diphenylethyl)-2-oxo-1,4-diazepan-5-yl)methyl)-5-(furan-2-yl)isoxazole-3-carboxamide] | < 1
COc1ccc(/C=C/C(=O)NC[C@@H]2CCN(CC(c3ccccc3)c3ccccc3)C(=O)[C@H](CCCNC(=N)N)N2)cc1 [Compound 187, (E)-N-(((3S,5S)-1-(2,2-diphenylethyl)-3-(3-guanidinopropyl)-2-oxo-1,4-diazepan-5-yl)methyl)-3-(4-methoxyphenyl)acrylamide] | < 0.1
NCCC[C@@H]1N[C@H](CNC(=O)c2ccc(Cl)c(Cl)c2)CCN(CC(c2ccccc2)c2ccccc2)C1=O [Compound 224, N-(((3S,5S)-3-(3-aminopropyl)-1-(2,2-diphenylethyl)-2-oxo-1,4-diazepan-5-yl)methyl)-3,4-dichlorobenzamide] | < 0.1
CN1[C@H](CNC(=O)c2ccc3cc(Br)ccc3c2)CCN(CC(c2ccccc2)c2ccccc2)C(=O)[C@@H]1CCCN [Compound 62, N-(((3S,5S)-3-(3-aminopropyl)-1-(2,2-diphenylethyl)-4-methyl-2-oxo-1,4-diazepan-5-yl)methyl)-6-bromo-2-naphthamide] | < 1
COc1ccc(C(=O)NC[C@@H]2CCN(CC(c3ccccc3)c3ccccc3)C(=O)[C@H](CCCNC(=N)N)N2)c(OC)c1 [Compound 146, N-(((3S,5S)-1-(2,2-diphenylethyl)-3-(3-guanidinopropyl)-2-oxo-1,4-diazepan-5-yl)methyl)-2,4-dimethoxybenzamide] | < 10
NCC[C@@H]1N[C@H](CNC(=O)/C=C/c2ccc(F)cc2)CCN(CC(c2ccccc2)c2ccccc2)C1=O [Compound 276, (E)-N-(((3S,5S)-3-(2-aminoethyl)-1-(2,2-diphenylethyl)-2-oxo-1,4-diazepan-5-yl)methyl)-3-(4-fluorophenyl)acrylamide] | < 0.1
NCCC[C@@H]1N[C@H](CNC(=O)c2ccc3cc(F)ccc3c2)CCN(CC(c2ccccc2)c2ccccc2)C1=O [Compound 221, N-(((3S,5S)-3-(3-aminopropyl)-1-(2,2-diphenylethyl)-2-oxo-1,4-diazepan-5-yl)methyl)-6-fluoro-2-naphthamide] | < 0.1
CNCCC[C@@H]1N[C@H](CNC(=O)c2ccc3ccccc3c2)CCN(CC(c2ccccc2)c2ccccc2)C1=O [Compound 71, N-(((3S,5S)-1-(2,2-diphenylethyl)-3-(3-(methylamino)propyl)-2-oxo-1,4-diazepan-5-yl)methyl)-2-naphthamide] | < 1
N=C(N)NCCC[C@@H]1N[C@H](CNC(=O)c2cc(Cl)cc(Cl)c2)CCN(CC(c2ccccc2)c2ccccc2)C1=O [Compound 154, 3,5-dichloro-N-(((3S,5S)-1-(2,2-diphenylethyl)-3-(3-guanidinopropyl)-2-oxo-1,4-diazepan-5-yl)methyl)benzamide] | < 1
Cc1ccc(C(=O)NC[C@@H]2CCN(CC(c3ccccc3)c3ccccc3)C(=O)[C@H](CCCNC(=N)N)N2)cc1C [Compound 144, N-(((3S,5S)-1-(2,2-diphenylethyl)-3-(3-guanidinopropyl)-2-oxo-1,4-diazepan-5-yl)methyl)-3,4-dimethylbenzamide] | < 0.1
NCCC[C@@H]1N[C@H](CNC(=O)c2ccc(-c3ccc(Cl)cc3)o2)CCN(CC(c2ccccc2)c2ccccc2)C1=O [Compound 237, N-(((3S,5S)-3-(3-aminopropyl)-1-(2,2-diphenylethyl)-2-oxo-1,4-diazepan-5-yl)methyl)-5-(4-chlorophenyl)furan-2-carboxamide] | < 0.1
CCC(CC)CN1CC[C@@H](CNC(=O)c2ccc(C)c(Cl)c2)N[C@@H](CCN)C1=O [Compound 354, N-(((3S,5S)-3-(2-aminoethyl)-1-(2-ethylbutyl)-2-oxo-1,4-diazepan-5-yl)methyl)-3-chloro-4-methylbenzamide] | < 10
O=C(/C=C/c1ccc(Cl)cc1)NC[C@@H]1CCN(CC(c2ccccc2)c2ccccc2)C(=O)[C@H](CCC(=O)N2CCCCC2)N1 [Compound 318, (E)-3-(4-chlorophenyl)-N-(((3S,5S)-1-(2,2-diphenylethyl)-2-oxo-3-(3-oxo-3-(piperidin-1-yl)propyl)-1,4-diazepan-5-yl)methyl)acrylamide] | < 0.1
NCCC[C@@H]1N[C@H](CNC(=O)c2cc(-c3ccc(Cl)cc3)on2)CCN(CC(c2ccccc2)c2ccccc2)C1=O [Compound 240, N-(((3S,5S)-3-(3-aminopropyl)-1-(2,2-diphenylethyl)-2-oxo-1,4-diazepan-5-yl)methyl)-5-(4-chlorophenyl)isoxazole-3-carboxamide] | < 0.1
CC(C)N(CC[C@@H]1N[C@H](CCNC(=O)c2ccc(Cl)c(Cl)c2)CCN(CC(c2ccccc2)c2ccccc2)C1=O)C(C)C [Compound 363, 3,4-dichloro-N-(2-((3S,5R)-3-(2-(diisopropylamino)ethyl)-1-(2,2-diphenylethyl)-2-oxo-1,4-diazepan-5-yl)ethyl)benzamide] | < 10
NC(=O)CC[C@@H]1N[C@H](CNC(=O)/C=C/c2ccc(Cl)cc2)CCN(CC(c2ccccc2)c2ccccc2)C1=O [Compound 298, (E)-N-(((3S,5S)-3-(3-amino-3-oxopropyl)-1-(2,2-diphenylethyl)-2-oxo-1,4-diazepan-5-yl)methyl)-3-(4-chlorophenyl)acrylamide] | < 1
N=C(N)NCCC[C@@H]1N[C@H](CNC(=O)COc2ccccc2)CCN(CC(c2ccccc2)c2ccccc2)C1=O [Compound 162, N-(((3S,5S)-1-(2,2-diphenylethyl)-3-(3-guanidinopropyl)-2-oxo-1,4-diazepan-5-yl)methyl)-2-phenoxyacetamide] | < 10
N=C(N)NCCC[C@@H]1N[C@H](CNC(=O)[C@H]2COc3ccccc3O2)CCN(CC(c2ccccc2)c2ccccc2)C1=O [Compound 168, (R)-N-(((3S,5S)-1-(2,2-diphenylethyl)-3-(3-guanidinopropyl)-2-oxo-1,4-diazepan-5-yl)methyl)-2,3-dihydrobenzo[b][1,4]dioxine-2-carboxamide] | < 1
N=C(N)NCCC[C@@H]1N[C@H](CNC(=O)COc2ccc(Cl)cc2Cl)CCN(CC(c2ccccc2)c2ccccc2)C1=O [Compound 176, 2-(2,4-dichlorophenoxy)-N-(((3S,5S)-1-(2,2-diphenylethyl)-3-(3-guanidinopropyl)-2-oxo-1,4-diazepan-5-yl)methyl)acetamide] | < 0.1

Reference: patent publication EP2257297B1, “COMPOUNDS FOR USE IN THE TREATMENT OF ACNE, SEBORRHOEA AND SEBHORROEIC DERMATITIS, OR FOR REDUCING SEBUM SECRETION” (priority 2008, dated 2009)
